# Patent US5670364A, “A83543 compounds and process for production thereof” (priority 1995, dated 1997)
# Experiments:
# German Cockroach = assay: Mite/Insect Screen, German cockroach (GECR); type: in vivo; details: Blattella germanica
# Description: (§1) The Formula 2 compounds were tested for miticidal and insecticidal activity in the following mite/insect screen. Each test compound was formulated by dissolving the compound in an acetone-alcohol (1:1) mixture containing 23 g of TOXIMUL R (sulfonate/nonionic emulsifier blend) and 13 g of TOXIMUL S (sulfonate/nonionic emulsifier blend) per liter. These mixtures were then diluted with water to give the indicated concentrations.
# (§2) Two-spotted spider mites and cotton aphids were introduced on squash cotyledons and allowed to establish on both leaf surfaces. The leaves were then sprayed with 5 ml of test solutions using a DeVilbiss atomizing sprayer at 10 psi. Both surfaces of the leaves were covered until run off and then allowed to dry for one hour. After standard exposure periods percent mortality was evaluated. Additional insects were evaluated using similar formulations and evaluation procedures.
# neonate tobacco budworm = assay: LD50 against neonate tobacco budworm, petri dish assay; type: in vivo; details: Heliothis virescens; mean of two tests; mortality evaluated at 24 and 48 hours
# Description: Formula 2 compounds were evaluated in the following assay to determine the LD50 against neonate tobacco budworm (Heliothis virescens). A petri dish (100 mm×20 mm) is inverted and the lid lined with a #1 qualitative filter paper. Ten neonate larvae are placed in each dish and a 1 ml test solution is pipetted onto the insects. The petri dish bottom is then placed on the lid to contain the larvae. At 1 hour after treatment, a small piece of Heliothis diet (modified slurry, Southland Products, Lake Village, AR) is added to each dish. The mortality is evaluated at 24 and 48 hours. The tests were run in triplicate.
# Cotton Aphid = assay: Mite/Insect Screen, cotton aphid (CA); type: in vivo, Aphis gossypii Glover; details: Aphis gossypii, 4-5 day
# Description: as §1, §2
# Tobacco Budworm = assay: Mite/Insect Screen, tobacco budworm (TBW); type: in vivo; details: Heliothis virescens, 144 h, 6 day; for inhibition at 50 ppm: 50 ppm (rate in parenthesis)
# Description: as §1, §2
# Aster Leafhopper = assay: Mite/Insect Screen, aster leafhopper (ALH); type: in vivo; details: Macrosteles fascifrons, 24 hr
# Description: as §1, §2
# Beet Armyworm = assay: Mite/Insect Screen, beet armyworm (BAW); type: in vivo, Spodoptera exiqua; details: Spodoptera exigua, 144 h, 6 day
# Description: as §1, §2
# Two-spotted Spider Mite = assay: Mite/Insect Screen, two-spotted spider mite (TSSM); type: in vivo; details: Tetranychus urticae, 4-5 day; for inhibition at 50 ppm: 50 ppm (rate in parenthesis)
# Description: as §1, §2
# Southern Corn Rootworm = assay: Mite/Insect Screen, southern corn rootworm (SCRW); type: in vivo, Diabrotica undecimpunctata howardi; details: 264 h, 11 day
# Description: as §1, §2
# Rootknot Nematode = assay: Mite/Insect Screen, rootknot nematode (NEM); type: in vivo, Meiiiodyne spp.; details: 264 h, 11 day
# Description: as §1, §2
# blowfly larvae = assay: in vitro activity against blowfly larvae; type: in vivo; details: 48 hours
# Description: (§3) The Formula 2 compounds are also active against members of the insect order Diptera. Tables XI and XII summarize the in vitro studies of the Formula 2 compounds against blowfly larvae and adult stable fly at 48 hours.
# adult stable fly = assay: in vitro activity against adult stable fly; type: in vivo; details: Stomoxys calcitrans, 48 hours
# Description: as §3
# [1] = tested on: macrocin O-methyltransferase; details: cited from earlier work
# [2] = tested on: norepinephrine N-methyltransferase; details: cited from earlier work
# [3] = tested on: catechol O-methyltransferase; details: cited from earlier work
# [4] = tested on: histamine N-methyltransferase; details: cited from earlier work
# [5] = tested on: S-adenosyl-methionine-dependent O-methyltransferase; details: avermectin-producing strains; cited from earlier work
SMILES,"inhibition at 200 ppm (German Cockroach; 168 h, 7 day) [%]","inhibition at 400 ppm (German Cockroach; 168 h, 7 day) [%]","inhibition at 200 ppm (German Cockroach; 504 h, 21 day) [%]","inhibition at 400 ppm (German Cockroach; 504 h, 21 day) [%]",LC50 (neonate tobacco budworm) [µg/mL],inhibition at 200 ppm (Cotton Aphid) [%],inhibition at 400 ppm (Cotton Aphid) [%],inhibition at 50 ppm (Tobacco Budworm) [%],inhibition at 400 ppm (Tobacco Budworm) [%],inhibition at 200 ppm (Aster Leafhopper) [%],inhibition at 400 ppm (Aster Leafhopper) [%],inhibition at 200 ppm (Beet Armyworm) [%],inhibition at 400 ppm (Beet Armyworm) [%],inhibition at 200 ppm (Two-spotted Spider Mite) [%],inhibition at 400 ppm (Two-spotted Spider Mite) [%],inhibition at 200 ppm (Southern Corn Rootworm) [%],inhibition at 400 ppm (Southern Corn Rootworm) [%],inhibition at 200 ppm (Rootknot Nematode) [%],inhibition at 400 ppm (Rootknot Nematode) [%],inhibition at 50 ppm (Two-spotted Spider Mite) [%],further results
CCC1CCCC(OC2CCC(N(C)C)C(C)O2)C(C)C(=O)C2=CC3C(C=CC4CC(OC5OC(C)C(O)C(OC)C5O)CC43)C2CC(=O)O1 (stereo not drawn) [A83543U],0,0,0,0,22,0,0,100,100,100,100,100,100,0,0,0,0,0,0,,
CCC1CCCC(OC2CCC(N(C)C)C(C)O2)C(C)C(=O)C2=CC3C(C=CC4CC(OC5OC(C)C(O)C(OC)C5OC)CC43)C2CC(=O)O1 (stereo not drawn) [A83543K],0,0,0,80,3.5,0,0,,100,100,100,100,100,90,100,0,100,0,0,,inhibition at 200 ppm (Tobacco Budworm): 100%; % mortality (blowfly larvae; 2.5 ppm): 40%; mortality at 2.5 ppm (adult stable fly; 2.5 ppm): 90%
"CCC1CCCC(OC2CCC(NC)C(C)O2)C(C)C(=O)C2=CC3C(C=CC4CC(OC5OC(C)C(O)C(OC)C5OC)CC43)C2CC(=O)O1 (stereo not drawn) [N-demethyl-K, N-demethyl-A83543K]",0,0,20,60,9.8,0,0,100,100,100,100,100,100,,100,,60,,100,0,
CCC1CCCC(OC2CCC(N(C)C)C(C)O2)C(C)C(=O)C2=CC3C(C=CC4CC(OC5OC(C)C(O)C(O)C5OC)CC43)C2CC(=O)O1 (stereo not drawn) [A83543P],0,0,20,0,> 64,0,0,0,100,0,0,100,100,,100,0,0,0,0,100,% mortality (blowfly larvae; 10.0 ppm): 10%; mortality at 10 ppm (adult stable fly): 90%
COC1C(OC2CC3C=CC4C5CC(=O)OC(C)CCCC(OC6CCC(N(C)C)C(C)O6)C(C)C(=O)C5=CC4C3C2)OC(C)C(O)C1OC (stereo not drawn) [A83543Y],0,0,,,20,0,0,0,100,60,80,80,100,,100,0,0,,,0,% mortality (blowfly larvae; 10.0 ppm): 100%; mortality at 10 ppm (adult stable fly): 90%
CCC1CCCC(OC2CCC(N(C)C)C(C)O2)C(C)C(=O)C2=CC3C(C=C(C)C4CC(OC5OC(C)C(O)C(OC)C5OC)CC43)C2CC(=O)O1 (stereo not drawn) [A83543O],0,0,20,100,1.4,0,100,,100,100,100,100,100,100,100,0,0,0,0,,inhibition at 200 ppm (Tobacco Budworm): 100%; mortality at 5 ppm (adult stable fly; 5 ppm): 100%
CCC1CCCC(OC2CCC(N(C)C)C(C)O2)C(C)C(=O)C2=CC3C(C=C(C)C4CC(OC5OC(C)C(O)C(O)C5OC)CC43)C2CC(=O)O1 (stereo not drawn) [A83543W],0,0,20,0,> 64,0,0,0,100,0,0,0,60,,80,0,0,0,0,0,% mortality (blowfly larvae; 10.0 ppm): 0%; mortality at 10 ppm (adult stable fly): 40%
Nc1ncnc2c1ncn2[C@@H]1O[C@H](C[C@@H](N)CC[C@H](N)C(=O)O)[C@@H](O)[C@H]1O [Sinefungin],,,,,,,,,,,,,,,,,,,,,inhibition of macrocin O-methyltransferase [1]: effective in inhibiting; inhibition of norepinephrine N-methyltransferase [2]: effective in inhibiting; inhibition of catechol O-methyltransferase [3]: effective in inhibiting; inhibition of histamine N-methyltransferase [4]: effective in inhibiting; inhibition of O-methyltransferase in S. avermitilis [5]: effective in inhibiting
